This is an account of results in patent US20140005163A1 (NOVARTIS AG, priority 2010, published 2014).

Assay [1] deals with PKB Ser473 phosphorylation in Rat1-myr-HA-p110 beta cells. The experiment in a line: Reverse protein array assay, PKB Ser473 phosphorylation in Rat1-myr-p110 beta cells. It counts as cell-based. Particulars: 0.5 h, pAkt Ser473, 30 minutes incubation, read-out: p-PKB IC50. In short, it runs like this:
(§1)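 Compound exposure lasted 30 min in Rat1 cells bearing membrane-targeted HA-p110 isoforms, using 8 serial concentrations. Arrayed lysates, each spotted at four dilutions, gave relative fluorescence signals for phospho-Ser473 PKB.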

Another assay concerns the target T1, mTOR (Homo sapiens, UniProt P42345).
T1 construct: purchased Invitrogen Corporation (Carlsbad/CA, USA) PV4753
The experiment in a line: Biochemical assay for m-TOR by TR-FRET. Conditions: 8 μM ATP, 400 nM GFP-4EBP1, 0.5 nM mTOR. An outline of the steps: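 Enzyme 0.5 nM, GFP-4EBP1 400 nM, ATP 8 μM (all final); 50 mM HEPES pH 7.5, 10 mM MnCl2, 1 mM DTT; rt. Detection: Tb-α-p4EBP1 [pT46] 0.5 nM in EDTA, TR-FRET, 15 min. Reference compound on every plate, 16-point duplicate dilutions.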

The subject of assay [2] is PKB Ser473 phosphorylation in Rat1-myr-HA-p110 delta cells. The experiment in a line: Reverse protein array assay, PKB Ser473 phosphorylation in Rat1-myr-p110 delta cells. It is filed as cell-based. Particulars: read-out: p-PKB IC50. In short, it runs like this: as §1
Assay [3] concerns S6 Ribosomal Protein phosphorylation Ser235/236 in TSC1 null mouse embryo fibroblast (MEF) cells. The assay can be described thus: Reverse protein array assay, S6 Ribosomal Protein phosphorylation Ser235/236 in TSC1 null MEF cells. It is filed as cell-based. Particulars: 1 h, pS6 ribosomal protein Ser235/236, 60 minutes incubation, read-out: p-S6 IC50. An outline of the steps:
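TSC1−/− MEFs, seeded and held ≥20 h at 37 °C/5% CO2, were exposed to 8-step serial compound dilutions (0.02% DMSO final; DMSO vehicle control) for 60 min at 37 °C. Cells were then lysed on ice for 10 min and lysates spotted onto reverse protein array chips.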

For assay [4], the system named is PKB Ser473 phosphorylation in Rat1-myr-HA-p110 alpha cells. The assay can be described thus: Reverse protein array assay, PKB Ser473 phosphorylation in Rat1-myr-p110 alpha cells. It is filed as cell-based. Particulars: 0.5 h, pAkt Ser473, 30 minutes compound incubation, read-out: p-PKB IC50. In short, it runs like this: as §1

T1 sequence (P42345 1360-2549 limits assumed): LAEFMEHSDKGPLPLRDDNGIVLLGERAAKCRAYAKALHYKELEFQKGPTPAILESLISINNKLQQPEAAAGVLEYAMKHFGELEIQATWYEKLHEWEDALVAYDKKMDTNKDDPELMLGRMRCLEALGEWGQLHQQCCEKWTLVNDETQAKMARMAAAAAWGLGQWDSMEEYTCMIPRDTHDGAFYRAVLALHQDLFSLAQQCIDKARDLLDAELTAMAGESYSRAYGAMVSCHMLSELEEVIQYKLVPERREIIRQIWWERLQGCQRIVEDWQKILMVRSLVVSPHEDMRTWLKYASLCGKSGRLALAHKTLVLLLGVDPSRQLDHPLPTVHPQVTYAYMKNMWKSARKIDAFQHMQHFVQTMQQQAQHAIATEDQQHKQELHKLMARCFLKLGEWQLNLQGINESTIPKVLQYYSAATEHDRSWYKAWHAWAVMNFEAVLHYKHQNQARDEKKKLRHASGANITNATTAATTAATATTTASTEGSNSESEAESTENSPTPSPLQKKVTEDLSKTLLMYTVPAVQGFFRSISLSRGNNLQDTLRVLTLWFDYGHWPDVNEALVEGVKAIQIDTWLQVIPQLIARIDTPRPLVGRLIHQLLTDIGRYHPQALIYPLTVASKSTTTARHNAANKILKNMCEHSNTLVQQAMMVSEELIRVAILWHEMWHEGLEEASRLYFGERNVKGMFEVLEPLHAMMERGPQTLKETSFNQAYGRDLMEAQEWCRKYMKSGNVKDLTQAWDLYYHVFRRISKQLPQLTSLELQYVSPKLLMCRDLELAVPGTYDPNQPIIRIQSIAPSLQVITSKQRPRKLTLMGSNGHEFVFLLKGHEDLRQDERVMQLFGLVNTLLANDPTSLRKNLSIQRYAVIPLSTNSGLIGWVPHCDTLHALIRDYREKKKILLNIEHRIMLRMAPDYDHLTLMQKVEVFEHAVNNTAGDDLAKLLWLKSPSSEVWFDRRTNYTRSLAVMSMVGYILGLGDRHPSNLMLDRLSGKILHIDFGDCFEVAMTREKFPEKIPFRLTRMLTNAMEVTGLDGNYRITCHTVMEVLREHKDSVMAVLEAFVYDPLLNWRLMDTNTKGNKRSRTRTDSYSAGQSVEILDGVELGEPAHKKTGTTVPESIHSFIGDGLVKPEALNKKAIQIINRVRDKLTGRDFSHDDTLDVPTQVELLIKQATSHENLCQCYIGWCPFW

With `Cc1nn(C(C)C)cc1-n1c(=O)n(C)c2cnc3ccc(-c4cnc(N)c(C(F)(F)F)c4)cc3c21` [Example 25.4, 8-(6-Amino-5-trifluoromethyl-pyridin-3-yl)-1-(1-isopropyl-3-methyl-1H-pyrazol-4-yl)-3-methyl-1,3-dihydro-imidazo[4,5-c]quinolin-2-one], the IC50 – broadly, the point on the concentration scale where inhibition reaches its midpoint – in assay [1] is 7 nM; at mTOR it was 6 nM; in assay [2], 9 nM; in assay [3], less than 0.5 nM; in assay [4], less than 5 nM.
Taken in the same sequence, the figures for `CCNc1cc(-c2ccc3ncc4c(c3c2)n(-c2cn(C)nc2Cl)c(=O)n4C)cnc1OC` [Example 90.1, 1-(3-Chloro-1-methyl-1H-pyrazol-4-yl)-8-(5-ethylamino-6-methoxy-pyridin-3-yl)-3-methyl-1,3-dihydro-imidazo[4,5-c]quinolin-2-one] were less than 5 nM, 5 nM, less than 5 nM, less than 0.5 nM and less than 5 nM.
On the same counts, the results for `Cc1nn(C)cc1-n1c(=O)n(C)c2cnc3ccc(-c4ccc(OCC5CC5)nc4)cc3c21` [Example 42, 8-(6-Cyclopropylmethoxy-pyridin-3-yl)-1-(1,3-dimethyl-1H-pyrazol-4-yl)-3-methyl-1,3-dihydro-imidazo[4,5-c]quinolin-2-one] are 66 nM, 65 nM, 158 nM, 3 nM and 36 nM.
Take `Cc1nn(C(C)C)cc1-n1c(=O)n(C)c2cnc3ccc(-c4cnc(N(C)C)nc4)cc3c21` [Example 6.1, 8-(2-Dimethylamino-pyrimidin-5-yl)-1-(1-isopropyl-3-methyl-1H-pyrazol-4-yl)-3-methyl-1,3-dihydro-imidazo[4,5-c]quinolin-2-one]: the IC50 in assay [1] was 43 nM; at mTOR, 30 nM; in assay [2], 90 nM; in assay [3] it was 33 nM; in assay [4], 61 nM.
In the case of `Cc1nn(C)cc1-n1c(=O)n(C)c2cnc3ccc(-c4cncc(NC(C)C)c4)cc3c21` [Example 177.1, 1-(1,3-Dimethyl-1H-pyrazol-4-yl)-8-(5-isopropylamino-pyridin-3-yl)-3-methyl-1,3-dihydro-imidazo[4,5-c]quinolin-2-one], the IC50 is 16 nM in assay [1]; 3 nM on mTOR; 39 nM in assay [2]; 2 nM in assay [3]; 9 nM in assay [4].
On to `Cc1nn(C)cc1-n1c(=O)n(C)c2cnc3ccc(-c4cnc(N)c(C(=O)NC(C)C)c4)cc3c21` [Example 225, 2-Amino-5-[1-(1,3-dimethyl-1H-pyrazol-4-yl)-3-methyl-2-oxo-2,3-dihydro-1H-imidazo[4,5-c]quinolin-8-yl]-N-isopropyl-nicotinamide], for which the half-inhibitory concentration (IC50) in assay [1] stood at 111 nM; on mTOR, 26 nM; in assay [2], 69 nM; in assay [3] it was 4 nM; in assay [4], 80 nM.
On the same counts, the results for `CC(=O)Nc1cc(-c2ccc3ncc4c(c3c2)n(-c2cn(C)nc2C)c(=O)n4C)cnc1Cl` [Example 222, N-{2-Chloro-5-[1-(1,3-dimethyl-1H-pyrazol-4-yl)-3-methyl-2-oxo-2,3-dihydro-1H-imidazo[4,5-c]quinolin-8-yl]-pyridin-3-yl}-acetamide] are 52 nM, 22 nM, 68 nM, 4 nM and 55 nM.
As for `CCOCc1ncc(-c2ccc3ncc4c(c3c2)n(-c2cn(C)nc2Cl)c(=O)n4C)cc1OC` [Example 196.1, 1-(3-Chloro-1-methyl-1H-pyrazol-4-yl)-8-(6-ethoxymethyl-5-methoxy-pyridin-3-yl)-3-methyl-1,3-dihydro-imidazo[4,5-c]quinolin-2-one], the IC50 in assay [1] was determined as 103 nM; at mTOR, 45 nM; in assay [2], 58 nM; in assay [3] it was 10 nM; in assay [4], 45 nM.
Take `Cc1nn(C)cc1-n1c(=O)n(C)c2cnc3ccc(-c4cncnc4)cc3c21` [Example 26, 1-(1,3-Dimethyl-1H-pyrazol-4-yl)-3-methyl-8-pyrimidin-5-yl-1,3-dihydro-imidazo[4,5-c]quinolin-2-one]: the IC50 was 226 nM in assay [1]; 112 nM at mTOR; 450 nM in assay [2]; 5 nM in assay [3]; 159 nM in assay [4].
`CCNc1ncc(-c2ccc3ncc4c(c3c2)n(-c2cn(C)nc2C)c(=O)n4C)cc1Cl` [Example 147, 8-(5-Chloro-6-ethylamino-pyridin-3-yl)-1-(1,3-dimethyl-1H-pyrazol-4-yl)-3-methyl-1,3-dihydro-imidazo[4,5-c]quinolin-2-one]: the concentration for half-maximal inhibition (IC50) in assay [1] was found to be 30 nM; at mTOR, 11 nM; in assay [2] it was 86 nM; in assay [3] it was 5.53 nM; in assay [4] it was 17 nM.
In the case of `CCOc1ccc(-c2ccc3ncc4c(c3c2)n(-c2cn(CCOC)nc2C)c(=O)n4C)cn1` [Example 131, 8-(6-Ethoxy-pyridin-3-yl)-1-[1-(2-methoxy-ethyl)-3-methyl-1H-pyrazol-4-yl]-3-methyl-1,3-dihydro-imidazo[4,5-c]quinolin-2-one], the 50% inhibitory concentration (IC50) was determined as 29 nM in assay [1]; 143 nM at mTOR; 127 nM in assay [2]; 5 nM in assay [3]; 41 nM in assay [4].
